Measured values published in patent publication US9493466B2, “Treatment of cancer with TOR kinase inhibitors” (Signal Pharmaceuticals, LLC, priority 2011, dated 2016).

Key:
Test in all cases: Growth inhibition assay for NHL lines
Format in all cases: cell-based
[1] = tested on: DOHH-2; conditions: DOHH-2, NHL FL, 96 hours, n ≧ 3
Procedure: (§1) Growth Inhibition Assay for HCC and NHL Lines. The seeding density for each cell line was optimized to ensure assay linearity in 384-well plates.
(§2) Compound 1 was dissolved in dimethyl sulfoxide (DMSO) to prepare a 10 mM stock solution. A serial titration was performed to produce a working concentration range of […] to 10 mM. Aliquots to produce final concentrations of 1.5 nM to 10 μM were spotted via an acoustic dispenser (EDC ATS-100) into an empty 384-well plate. Compound 1 was spotted in a 10-point serial dilution fashion (3-fold dilution) in duplicate within the plate. The DMSO concentration was kept constant for a final assay concentration of 0.1% DMSO. Plates were replicated for use with different cell lines and testing periods. After compound plate replication, all plates were sealed (Agilent ThermoLoc) and stored at −20° C. for up to 1 month. […] When ready for testing, plates were removed from the freezer, thawed, and unsealed just prior to the addition of the test cells. Prior to testing, cells were grown and expanded in culture flasks to provide sufficient amounts of starting material. Cells were then diluted to the appropriate densities and added directly to the compound-spotted 384-well plates. Cells were allowed to grow for 96 hours at 37° C./5% CO2. At the time when compound was added (t0), initial cell number was assessed via a viability assay (Cell Titer-Glo) by quantifying the level of luminescence generated by ATP present in viable cells. After 96 hours, cell viability of compound-treated cells was assessed via Cell Titer-Glo and luminescence measurement. Cell lines were assayed for growth inhibition by Compound 1 in at least 3 independent tests. A control cell line (the lung tumor cell line, A549) was included in each of the assays. The compound response against this control cell line was monitored closely to enable comparison of the data generated through the assay period. All data were normalized and presented as a percentage of the DMSO-treated cells. Results were then expressed as a GI50 value. The GI50 value corrects for the cell count at time zero. In addition, the IC50 value of Compound 1 for each cell line was calculated.

[2] = tested on: Granta-519; conditions: Granta-519, NHL MCL, 96 hours, n ≧ 3
Procedure: as §1, §2

[3] = tested on: HT; conditions: NHL DLBCL, 96 hours, n ≧ 3
Procedure: as §1, §2

[4] = tested on: JVM-2; conditions: JVM-2, NHL MCL, 96 hours, n ≧ 3
Procedure: as §1, §2

[5] = tested on: KARPAS-299; conditions: KARPAS-299, ALCL T-cell, 96 hours, n ≧ 3
Procedure: as §1, §2

[6] = tested on: KASUMI-1; conditions: KASUMI-1, Leukemia M-AML, 96 hours, n ≧ 3
Procedure: as §1, §2

[7] = tested on: MOLM-13; conditions: MOLM-13, Leukemia M-AML, 96 hours, n ≧ 3
Procedure: as §1, §2

[8] = tested on: NU-DHL-1; conditions: NU-DHL-1, NHL DLBCL, 96 hours, n ≧ 3
Procedure: as §1, §2

[9] = tested on: REC-1; conditions: REC-1, NHL MCL, 96 hours, n ≧ 3
Procedure: as §1, §2

[10] = tested on: SU-DHL-10; conditions: SU-DHL-10, NHL DLBCL, 96 hours, n ≧ 3
Procedure: as §1, §2

[11] = tested on: SU-DHL-1; conditions: SU-DHL-1, ALCL T-cell, 96 hours, n ≧ 3
Procedure: as §1, §2

[12] = tested on: SU-DHL-4; conditions: SU-DHL-4, NHL DLBCL, 96 hours, n ≧ 3
Procedure: as §1, §2

[13] = tested on: SU-DHL-5; conditions: SU-DHL-5, NHL DLBCL, 96 hours, n ≧ 3
Procedure: as §1, §2

[14] = tested on: SU-DHL-6; conditions: SU-DHL-6, NHL DLBCL, 96 hours, n ≧ 3
Procedure: as §1, §2

[15] = tested on: SU-DHL-8; conditions: SU-DHL-8, NHL DLBCL, 96 hours, n ≧ 3
Procedure: as §1, §2

[16] = tested on: Toledo; conditions: NHL DLBCL, 96 hours, n ≧ 3
Procedure: as §1, §2

## CO[C@H]1CC[C@H](N2C(=O)CNc3ncc(-c4ccc(C(C)(C)O)nc4)nc32)CC1 [Compound 1, 7-(6-(2-hydroxypropan-2-yl)pyridin-3-yl)-1-((1r,4r)-4-methoxycyclohexyl)-3,4-dihydropyrazino-[2,3-b]pyrazin-2(1H)-one]
[1]
  GI50: 130 ± 20 nM
  IC50: 160 ± 30 nM
[2]
  GI50: 380 ± 80 nM
  IC50: 960 ± 100 nM
[3]
  GI50: 110 ± 40 nM
  IC50: 170 ± 50 nM
[4]
  GI50: 260 ± 50 nM
  IC50: 440 ± 180 nM
[5]
  GI50: 330 ± 120 nM
  IC50: 470 ± 220 nM
[6]
  GI50: 40 ± 20 nM
  IC50: 120 ± 30 nM
[7]
  GI50: 110 ± 20 nM
  IC50: 140 ± 20 nM
[8]
  GI50: 80 ± 30 nM
  IC50: 110 ± 50 nM
[9]
  GI50: 200 ± 40 nM
  IC50: 260 ± 50 nM
[10]
  GI50: 200 ± 20 nM
  IC50: 200 ± 30 nM
[11]
  GI50: 320 ± 20 nM
  IC50: 390 ± 30 nM
[12]
  GI50: 110 ± 40 nM
  IC50: 120 ± 50 nM
[13]
  GI50: 230 ± 130 nM
  IC50: 260 ± 140 nM
[14]
  GI50: 160 ± 40 nM
  IC50: 200 ± 60 nM
[15]
  GI50: 80 ± 40 nM
  IC50: 100 ± 40 nM
[16]
  GI50: 70 ± 20 nM
  IC50: 440 ± 20 nM
